Columns and labels:
[1] = test system: Zucker Diabetic Fatty (ZDF) rats; assay: oral glucose tolerance test in ZDF rats; format: in vivo, rat; conditions: male ZDF rats, single oral dose 30 min before 2 g/kg oral glucose; linagliptin 1 mg/kg, compound (I.3) 3 mg/kg, combination at the same doses; versus control
Method: According to a first example an oral glucose tolerance test is performed in overnight fasted 9-weeks old male Zucker Diabetic Fatty (ZDF) rats (ZDF/Crl-Lepr^fa). A pre-dose blood sample is obtained by tail bleed. Blood glucose is measured with a glucometer, and the animals are randomized for blood glucose (n=5/group). Subsequently, the groups receive a single oral administration of either vehicle alone (0.5% aqueous hydroxyethylcellulose containing 3 mM HCl and 0.015% Polysorbat 80) or vehicle containing either the SGLT2 inhibitor or the DPPIV inhibitor or the combination of the SGLT2 inhibitor plus the DPP IV inhibitor plus. The animals receive an oral glucose load (2 g/kg) 30 min after compound administration. Blood glucose is measured in tail blood 30 min, 60 min, 90 min, 120 min, and 180 min after the glucose challenge. Glucose excursion is quantified by calculating the reactive glucose AUC. The data are presented as mean±SEM. The two-sided unpaired Student t-test is used for statistical comparison of the control group and the active groups.
“Cpd. A” is linagliptin at a dose of 1 mg/kg. Cpd. B is the compound (I.3), i.e. 1-chloro-4-(β-D-glucopyranos-1-yl)-2-[4-((S)-tetrahydrofuran-3-yloxy)-benzyl]-benzene, at a dose of 3 mg/kg. Combination A+B is the combination of linagliptin and the compound (I.3) at the same doses. P-values versus control are indicated by symbols above the bars. […]

[2] = compatibility with / degradation of linagliptin in the composition; format: physicochemical; conditions: combined with a glucopyranosyl-substituted benzene derivative of the formula (I), in particular the compound (I.3)
Method: Preferably the excipients are chosen such that they are compatible with linagliptin, i.e. such that there is no or only marginal degradation of linagliptin in the pharmaceutical composition. The degradation can be tested in standard tests, for example after a 6 months storage at 40° C. and 75% relative humidity. In this context the term “marginal degradation” shall mean a chemical degradation of linagliptin of less than 5%, preferably less than 3%, even more preferably less than 2% by weight of linagliptin. The content and thus the degradation can be determined by well-known analytical methods, for example using HPLC or UV methods.

[3] = metformin on its own, in the diabetic; cited from earlier work

SMILES | reduction of glucose excursion (reactive glucose AUC) in oral glucose tolerance test [1] | degradation of linagliptin [2] | average improvement in the HbA1c value [3]
CC#CCn1c(N2CCC[C@@H](N)C2)nc2c1c(=O)n(Cc1nc(C)c3ccccc3n1)c(=O)n2C [Linagliptin, linagliptin] | 56% | does not show or shows only marginal degradation | 
OC[C@H]1O[C@@H](c2ccc(Cl)c(Cc3ccc(O[C@H]4CCOC4)cc3)c2)[C@H](O)[C@@H](O)[C@@H]1O [compound (I.3), 1-chloro-4-(β-D-glucopyranos-1-yl)-2-[4-((S)-tetrahydrofuran-3-yloxy)-benzyl]-benzene] | 51% |  | 
CN(C)C(=N)N=C(N)N [metformin] |  |  | 1.0-1.5%

Reference: patent US20220331326A1, “PHARMACEUTICAL COMPOSITION, PHARMACEUTICAL DOSAGE FORM, PROCESS FOR THEIR PREPARATION, METHODS FOR TREATING AND USES THEREOF” (Boehringer Ingelheim International GmbH, priority 2009, published 2022)
